In ChEMBL document CHEMBL1201862, “PubChem BioAssay data set” (2004):
Calls of active or inactive are those of the source.

Assays:
[1] = target: T1, DNA repair and recombination protein RAD54-like (Homo sapiens, UniProt Q92698); assay: inhibitors of human RAD54 branch migration, confirmation, biochemical, fluorescence, cherry-picked samples, dose series (AID 651657); assay type: functional
T1 sequence (Q92698 whole entry): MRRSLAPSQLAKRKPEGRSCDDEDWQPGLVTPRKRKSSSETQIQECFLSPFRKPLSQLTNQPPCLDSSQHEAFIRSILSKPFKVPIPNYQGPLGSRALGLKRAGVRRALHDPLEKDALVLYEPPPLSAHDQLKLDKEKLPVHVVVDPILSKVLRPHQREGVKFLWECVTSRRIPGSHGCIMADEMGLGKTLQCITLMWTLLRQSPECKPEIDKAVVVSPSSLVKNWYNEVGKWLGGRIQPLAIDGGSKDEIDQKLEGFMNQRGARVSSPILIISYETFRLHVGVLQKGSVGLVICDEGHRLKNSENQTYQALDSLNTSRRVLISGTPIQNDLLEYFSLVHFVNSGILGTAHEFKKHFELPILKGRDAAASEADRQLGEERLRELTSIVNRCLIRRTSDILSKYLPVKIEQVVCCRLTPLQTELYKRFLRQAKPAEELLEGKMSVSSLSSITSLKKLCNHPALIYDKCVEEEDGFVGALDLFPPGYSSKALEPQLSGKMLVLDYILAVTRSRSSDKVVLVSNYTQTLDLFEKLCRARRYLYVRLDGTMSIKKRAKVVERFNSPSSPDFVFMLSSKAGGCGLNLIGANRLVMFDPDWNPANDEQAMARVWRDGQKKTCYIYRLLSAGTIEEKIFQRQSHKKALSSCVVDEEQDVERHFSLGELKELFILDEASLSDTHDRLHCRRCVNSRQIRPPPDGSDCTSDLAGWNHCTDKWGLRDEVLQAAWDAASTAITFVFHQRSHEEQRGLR

[2] = target: T2, Fructose-bisphosphate aldolase (Mycobacterium tuberculosis, UniProt P9WQA3); assay: Fluorescence-based biochemical high throughput dose response assay for inhibitors of the fructose-bisphosphate aldolase (FBA) of M. tuberculosis.; assay type: functional
T2 sequence (P9WQA3 whole entry): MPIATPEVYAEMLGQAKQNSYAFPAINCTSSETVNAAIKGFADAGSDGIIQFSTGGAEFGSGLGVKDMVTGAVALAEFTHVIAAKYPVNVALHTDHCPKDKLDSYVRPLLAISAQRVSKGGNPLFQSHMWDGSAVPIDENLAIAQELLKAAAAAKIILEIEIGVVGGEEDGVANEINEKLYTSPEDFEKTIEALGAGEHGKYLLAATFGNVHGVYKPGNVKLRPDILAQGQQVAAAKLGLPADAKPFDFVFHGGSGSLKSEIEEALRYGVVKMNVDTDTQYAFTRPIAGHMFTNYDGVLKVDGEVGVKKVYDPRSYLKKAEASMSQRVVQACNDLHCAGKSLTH

[3] = inhibitors of firefly luciferase expression or activity, dose response, H4 neuroglioma cells, luminescence (AID 1990); assay type: functional, cell-based
[4] = test system: Streptococcus sp. 'group A'; assay: growth inhibition of control SK(-) GAS strain, dose response, counter-screen for streptokinase expression inhibitor project, luminescence, kanamycin, BacTiterGlo, confirmation (AID 1900); assay type: functional, organism-based
[5] = Luminescence Cell-Based Dose Response HTS to Identify Inhibitors of 5'UTR Stem-Loop Driven Prion Protein mRNA Translation in H4 Neuroglioblastoma Cells. [Related pubchem assays: 1827 (Project Summary), 1813 (Primary HTS)]; assay type: functional
[6] = inhibitors of SNCA 5'UTR-driven reporter translation, confirmation, H4 neuroglioma cells, luminescence (AID 1988); assay type: functional, cell-based
[7] = inhibitors of intracellular T. cruzi replication, confirmation, NIH3T3 host cells, beta-gal luminescence (AID 2044); assay type: functional, cell-based;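 also: intracellular parasites grown in NIH/3T3 mouse fibroblasts as host cells; luminescent beta-galactosidase reporter signal from transgenic T. cruzi replicating inside host cells; inhibitors lower the luminescence signal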
[8] = cytotoxicity toward NIH3T3 fibroblasts, dose response, counter-screen, cell-based, ATP luminescence, mouse fibroblasts (AID 2010); assay type: functional;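 also: cells exposed to compound for about 90 hours before reading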
Streptococcus = assay: Group A Streptococcus viability loss, dose response, counter-screen for streptokinase expression inhibitor project, luminescence, BacTiterGlo (AID 1915); assay type: functional, organism-based;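 also: potency for reduction of bacterial viability or growth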
INS1 = assay: beta cell apoptosis inhibitors, cytokine rescue, dose response, luminescence, retest (AID 449756); assay type: functional, cell-based; details: ins1;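 also: cell death triggered by IL-1 beta plus TNF-alpha plus IFN-gamma mixture; protective hits raise ATP signal compared with cytokine alone wells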
[9] = nonselective inhibitors of cellular cAMP signaling, dose response, counter-screen for MC4R biased antagonist project, cell-based, TR-FRET cAMP detection (AID 602305); assay type: functional;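 also: U2OS cells stimulated with forskolin near its EC80 as the cAMP inducer; potency is for inhibition of forskolin-stimulated cAMP signaling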
[10] = HeLa cell cytotoxicity, dose response, cytotoxicity control for MgcRacGAP inhibitor project (AID 624300); assay type: functional
[11] = target: T3, Corticotropin-releasing factor receptor 2/Corticotropin-releasing factor-binding protein (Homo sapiens, UniProt P24387+Q13324); assay: activators of CRF receptor 2 with binding protein – uHTS hits, confirmation (AID 602473); assay type: functional; details: read-out: EC50_Mean
T3 sequence (Q13324 whole entry): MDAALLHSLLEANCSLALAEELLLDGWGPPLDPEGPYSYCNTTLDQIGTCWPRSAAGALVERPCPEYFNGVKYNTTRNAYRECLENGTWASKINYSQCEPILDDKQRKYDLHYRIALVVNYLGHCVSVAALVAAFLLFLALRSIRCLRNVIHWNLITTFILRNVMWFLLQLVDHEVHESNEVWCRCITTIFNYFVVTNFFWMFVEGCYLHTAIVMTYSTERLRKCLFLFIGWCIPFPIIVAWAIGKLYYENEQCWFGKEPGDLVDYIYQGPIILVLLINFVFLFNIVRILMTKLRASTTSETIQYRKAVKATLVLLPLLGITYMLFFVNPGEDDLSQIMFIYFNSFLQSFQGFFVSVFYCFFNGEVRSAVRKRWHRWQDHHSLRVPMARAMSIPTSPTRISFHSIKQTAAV
T3 sequence (P24387 whole entry): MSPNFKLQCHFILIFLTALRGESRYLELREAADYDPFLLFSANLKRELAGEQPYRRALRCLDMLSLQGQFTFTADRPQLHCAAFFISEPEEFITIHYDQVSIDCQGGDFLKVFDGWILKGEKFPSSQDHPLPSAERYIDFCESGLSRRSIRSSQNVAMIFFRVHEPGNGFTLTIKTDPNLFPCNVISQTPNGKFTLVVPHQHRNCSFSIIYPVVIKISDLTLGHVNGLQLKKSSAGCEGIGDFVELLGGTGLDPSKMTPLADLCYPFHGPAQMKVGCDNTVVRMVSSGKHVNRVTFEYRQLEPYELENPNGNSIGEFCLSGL

[12] = human group III sPLA2 inhibitors, dose response, biochemical, QFRET, IC50 (AID 743457);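 also: green fluorescence rise as the enzyme cleaves BODIPY PC-A2 in liposomes; potency for inhibition of the enzyme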
Paired box protein Pax-8 = Paired box protein Pax-8 (Homo sapiens, UniProt Q06710); assay: inhibitors of PAX8-driven TPO luciferase reporter, dose response, RMG-I cells, cherry-pick (AID 687027); assay type: functional, cell-based;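 also: luciferase reporter driven by Pax8 target thyroperoxidase promoter measured by SteadyGlo luminescence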
Paired box protein Pax-8, sequence (Q06710 whole entry): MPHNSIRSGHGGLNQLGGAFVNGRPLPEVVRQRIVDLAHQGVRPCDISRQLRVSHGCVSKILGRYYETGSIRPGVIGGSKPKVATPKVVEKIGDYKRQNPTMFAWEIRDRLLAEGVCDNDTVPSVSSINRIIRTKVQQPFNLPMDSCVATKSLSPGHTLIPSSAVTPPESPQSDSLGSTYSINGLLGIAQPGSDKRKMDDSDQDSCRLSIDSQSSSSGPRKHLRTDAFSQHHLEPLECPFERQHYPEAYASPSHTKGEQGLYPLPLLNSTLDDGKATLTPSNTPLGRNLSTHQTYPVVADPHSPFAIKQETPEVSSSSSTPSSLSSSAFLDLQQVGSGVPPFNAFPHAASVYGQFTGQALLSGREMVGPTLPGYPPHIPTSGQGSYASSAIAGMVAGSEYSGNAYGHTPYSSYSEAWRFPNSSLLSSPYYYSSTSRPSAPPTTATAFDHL

[13] = IGROV1 ovarian cancer cell cytotoxicity, dose response, PAX8 inhibitor project, plate reader, dry powder samples (AID 743043); assay type: functional, cell-based; details: IGROV-1

SMILES: CC1CCN(CCCNC(=O)c2cc3c(=O)n(C)c4ccccc4c3n2C)CC1
- AC50 [1]: 27.8 µM (active)

SMILES: CCCCN=C(S)N(CCN(CC)CC)Cc1cc2cc3c(cc2nc1O)OCO3
- IC50 [2]: 2.44 µM (active)

SMILES: N=C(NCCCCCCNC(=N)NC(=N)Nc1ccc(Cl)cc1)NC(=N)Nc1ccc(Cl)cc1
- EC50 [3]: 8.64 µM (active)
- EC50 [4]: 0.517 µM (active)
- EC50 [5]: 18.2 µM (active)
- EC50 [6]: 9.88 µM (active)
- EC50 [7]: 0.332 µM (active)
- EC50 [8]: 7.82 µM (active)
- EC50 (Streptococcus): 2.09 µM (active)
- AC50 (INS1): 4.27 µM (active)
- IC50 [9]: 61.2 µM (inactive)
- CC50 [10]: 37.9 µM (active)

SMILES: Cc1nnsc1-c1nc2ccccc2[nH]1
- IC50 [2]: 1.4 µM (active)

SMILES: Cn1c(-c2cccs2)nc2ccccc21
- IC50 [2]: 1.48 µM (active)

SMILES: Cc1nc2ccccc2c2oc(C(=O)NCCN3CCCCC3C)cc12 (stereo not given)
- AC50 [1]: 35.2 µM (active)

SMILES: CC(C)CC(=O)NC(=S)NNC(=O)c1cccc([N+](=O)[O-])c1
- EC50 [11]: > 53 µM (inactive)
- IC50 [12]: > 122 µM (inactive)

SMILES: CC(C)(CNC(=O)c1cc(-c2ccc(Cl)s2)nc2ccccc12)N1CCOCC1
- IC50 [2]: 1.59 µM (active)

SMILES: C[C@H](O)C#Cc1cnc2c(c1)C(=O)N([C@H](C)CO)C[C@@H](C)[C@@H](CN(C)Cc1ccc(-c3ccccc3)cc1)O2
- AC50 (Paired box protein Pax-8): 1.66 µM (active)
- AC50 [13]: 25.6 µM (active)
